According to US9980973B2, “Bicyclic heterocycle compounds and their uses in therapy” (ASTEX THERAPEUTICS LIMITED, priority 2012, dated 2018):
Where a name gives a salt, the structure may show the parent alone. Read-outs that look alike come from different tables or passages of the source.

Tested on: EVSA-T (human breast carcinoma)
Test: Anti-proliferative activity, Alamar Blue assay, EVSA-T
Format: cell-based
[1] = EVSA-T cells, 72 hours, Alamar Blue, dihydrochloride, read-out: EVSA-T prolif
[2] = Homo sapiens, EVSA-T, read-out: EC50 in EVSA-T cell line assays
[3] = Homo sapiens, EVSA-T, 72 h, EVSA-T cells, 72 hours, Alamar Blue, read-out: EVSA-T prolif

SMILES	EC50 [2]	EC50 [3]	EC50 [1]
C[C@@H]1CN(CC(=O)N2CC(C)(C)c3ncc(C(O)c4ccc(F)c(F)c4)cc32)[C@@H](CN2[C@H](C)COC[C@H]2C)CN1 (single isomer, unassigned) [Example 109, (R or S)-1-{6-[(3,4-Difluorophenyl)(hydroxy)meth-yl]-3,3-dimethyl-1H,2H,3H-pyrrolo[3,2-b]pyridin-1-yl}-2-[(2R,5R)-2-{[(3R,5R)-3,5-dimethylmorpholin-4-yl]methyl}-5-methylpiperazin-1-yl]ethan-1-one dihydrochloride]	< 1000 nM		9.7 nM
C[C@@H]1CN(CC(=O)N2CC(C)(C)c3ncc(C(O)c4ccccc4)cc32)[C@@H](CN2[C@H](C)COC[C@H]2C)CN1 (single isomer, unassigned) [Example 113, 2-[(2R,5R)-2-{[(3R,5R)-3,5-Dimethylmorpholin-4-yl]methyl}-5-methylpiperazin-1-yl]-1-{(R or S)-6-[hydroxy(phenyl)methyl]-3,3-dimethyl-1H,2H,3H-pyrrolo[3,2-]pyridin-1-yl}ethan-1-one dihydrochloride]	< 1000 nM	9.4 nM	
COCC1(C)COCCN1C[C@H]1CN[C@H](C)CN1CC(=O)N1CC(C)(C)c2ncc(Cc3ccc(F)cc3)cc21 (single isomer, unassigned) [Example 99, dihydrochloride]		1.5 nM	
C[C@@H]1CN(CC(=O)N2CC(C)(C)c3ncc(Cc4ccc(F)cc4)cc32)[C@@H](CN2CCC(F)(F)CC2)CN1 [Example 4, 2-[(2R,5R)-2-[(4,4-Difluoropiperidin-1-yl)methyl]-5-methylpiperazin-1-yl]-1-{6-[(4-fluorophenyl)methyl]-3,3-dimethyl-1H,2H,3H-pyrrolo[3,2-b]pyridin-1-yl}ethan-1-one dihydrochloride]	< 1000 nM	6.8 nM	
C[C@@H]1CN(CC(=O)N2CC(C)(C)c3ncc(Cc4ccc(F)cc4)cc32)[C@@H](CN2CCOCC23CC3)CN1 [Example 10, 1-{6-[(4-Fluorophenyl)methyl]-3,3-dimethyl-1H,2H,3H-pyrrolo[3,2-b]pyridin-1-yl}-2-[(2R,5R)-5-methyl-2-{7-oxa-4-azaspiro[2.5]octan-4-ylmethyl}piperazin-1-yl]ethan-1-one dihydrochloride]	< 1000 nM	0.42 nM	
CC(C)[C@@H]1COCCN1C[C@H]1CN[C@H](C)CN1CC(=O)N1CC(C)(C)c2ncc(Cc3ccc(F)cc3)cc21 [Example 13, 1-{6-[(4-Fluorophenyl)methyl]-3,3-dimethyl-1H,2H,3H-pyrrolo[3,2-b]pyridin-1-yl)-2-[(2R,5R)-5-methyl-2-{[(3R)-3-(propan-2-yl)morpholin-4-yl]methyl}piperazin-1-yl]ethan-1-one dihydrochloride]	< 1000 nM	1.2 nM	
C[C@@H]1CN(CC(=O)N2CC(C)(C)c3ncc(Cc4ccc(F)cc4)cc32)[C@@H](CN2C[C@H](CO)OC[C@H]2C)CN1 [Example 119, 1-{6-[(4-Fluorophenyl)methyl]-3,3-dimethyl-1H,2H,3H-pyrrolo[3,2-b]pyridin-1-yl}-2-[(2R,5R)-2-{[(2R,5R)-2-(hydroxymethyl)-5-methylmorpholin-4-yl]methyl}-5-methylpiperazin-1-yl]ethan-1-one, dihydrochloride]	< 1000 nM	0.32 nM	
C[C@@H]1CN(CC(=O)N2CC(C)(C)c3ncc(C(O)c4cc(F)ccc4F)cc32)[C@@H](CN2[C@H](C)COC[C@H]2C)CN1 (single isomer, unassigned) [Example 115, 1-{(R or S)-6-[(2,5-Difluorophenyl)(hydroxy)meth-yl]-3,3-dimethyl-1H,2H,3H-pyrrolo[3,2-b]pyridin-1-yl}-2-[(2R,5R)-2-{[(3R,5R)-3,5-dimethylmorpholin-4-yl]methyl}-5-methylpiperazin-1-yl]ethan-1-one dihydrochloride]	< 1000 nM		9.5 nM

Second part, led by results:

EC50 [2]	EC50 [3]	SMILES	EC50 [1]
< 1000 nM	0.3 nM	C[C@@H]1CN(CC(=O)N2CC(C)(C)c3ncc(Cc4ccc(F)cc4)cc32)[C@@H](CN2CCOCC2(C)C)CN1 [Example 5, 2-[(2R,5R)-2-[(3,3-Dimethylmorpholin-4-yl)methyl]-5-methylpiperazin-1-yl]-1-{6-[(4-fluorophenyl)methyl]-3,3-dimethyl-1H,2H,3H-pyrrolo[3,2-b]pyridin-1-yl}ethan-1-one dihydrochloride]	
< 1000 nM	29 nM	CCCC(O)c1cc2c(cn1)C(C)(C)CN2C(=O)CN1C[C@@H](C)NC[C@@H]1CN1[C@H](C)COC[C@H]1C (stereo partly drawn) [Example 90, 2-[(2R,5R)-2-{[(3R,5R)-3,5-Dimethylmorpholin-4-yl]methyl}-5-methylpiperazin-1-yl]-1-[6-(1-hydroxybutyl)-3,3-dimethyl-1H,2H,3H-pyrrolo[3,2-c]pyridin-1-yl]ethan-1-one dihydrochloride]	
< 1000 nM	5.4 nM	CC1CC(=O)CCN1C[C@H]1CN[C@H](C)CN1CC(=O)N1CC(C)(C)c2ncc(Cc3ccc(F)cc3)cc21 (single isomer, unassigned) [Example 39, (2R or 2S)-1-{[(2R,5R)-1-(2-{6-[(4-Fluorophenyl)methyl]-3,3-dimethyl-1H,2H,3H-pyrrolo[3,2-b]pyridin-1-yl}-2-oxoethyl)-5-methylpiperazin-2-yl]methyl}-2-methylpiperidin-4-one dihydrochloride]	
< 1000 nM	0.37 nM	C[C@@H]1CN(CC(=O)N2CC(C)(C)c3c2cc(Cc2ccc(F)cc2)c[n+]3[O-])[C@@H](CN2[C@H](C)COC[C@H]2C)CN1 [Example 121, 1-{2-[(2R,5R)-2-{[(3R,5R)-3,5-Dimethylmorpholin-4-yl]methyl}-5-methylpiperazin-1-yl]acetyl}-6-[(4-fluorophenyl)methyl]-3,3-dimethyl-1H,2H,3H-pyrrolo[3,2-b]-pyridin-4-oxide dihydrochloride]	
< 1000 nM	2.1 nM	CC1CS(=O)(=O)CCN1C[C@H]1CN[C@H](C)CN1CC(=O)N1CC(C)(C)c2ncc(Cc3ccc(F)cc3)cc21 (stereo partly drawn) [Example 9, 4-{[(2R,5R)-1-(2-{6-[(4-Fluorophenyl)methyl]-3,3-dimethyl-1H,2H,3H-pyrrolo[3,2-b]pyridin-1-yl}-2-oxoethyl)-5-methylpiperazin-2-yl]methyl}-3-methyl-1λ^6,4-thiomorpholine-1,1-dione dihydrochloride]	
< 1000 nM	2.8 nM	C[C@@H]1CN(CC(=O)N2CC(C)(C)c3ncc(Cc4ccc(F)cc4)cc32)[C@@H](CN2[C@H](CO)COC[C@H]2C)CN1 [Example 37, 1-{6-[(4-Fluorophenyl)methyl]-3,3-dimethyl-1H,2H,3H-pyrrolo[3,2-b]pyridin-1-yl}-2-[(2R,5R)-2-{[(3R,5R)-3-(hydroxymethyl)-5-methylmorpholin-4-yl]methyl}-5-methylpiperazin-1-yl]ethan-1-one, dihydrochloride]	
